From ChEMBL document CHEMBL1130944, “Exploring structure-activity relationships around the phosphomannose isomerase inhibitor AF14049 via combinatorial synthesis” (Bioorg Med Chem Lett, 1998)
Values after ≈ are worked out from the molar mass of the structure shown.

Key:
[1] = molecular target: T1, Mannose-6-phosphate isomerase (Candida albicans (strain SC5314 / ATCC MYA-2876) (Yeast), UniProt P34948); test: Inhibition of phosphomannose isomerase enzyme of Candida albicans (CaPMI)
T1 sequence (P34948 whole entry): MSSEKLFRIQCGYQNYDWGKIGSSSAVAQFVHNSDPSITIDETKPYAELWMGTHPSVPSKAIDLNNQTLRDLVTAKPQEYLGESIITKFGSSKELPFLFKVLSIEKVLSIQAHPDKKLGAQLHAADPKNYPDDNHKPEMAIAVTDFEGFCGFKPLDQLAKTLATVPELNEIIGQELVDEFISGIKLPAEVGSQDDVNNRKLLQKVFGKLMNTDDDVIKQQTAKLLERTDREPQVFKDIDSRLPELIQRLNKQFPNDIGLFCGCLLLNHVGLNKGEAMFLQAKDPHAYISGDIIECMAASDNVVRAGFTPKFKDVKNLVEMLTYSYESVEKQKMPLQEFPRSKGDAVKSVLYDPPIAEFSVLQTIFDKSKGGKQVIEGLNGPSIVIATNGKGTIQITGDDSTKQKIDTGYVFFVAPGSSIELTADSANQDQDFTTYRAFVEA

[2] = molecular target: Mannose-6-phosphate isomerase (Saccharomyces cerevisiae) (UniProt P29952); test: Compound was evaluated for the inhibition of yeast phosphomannose isomerase (PMI) at a concentration of 300 uM; inactive
Chain of Mannose-6-phosphate isomerase (Saccharomyces cerevisiae) (P29952 whole entry, looked up): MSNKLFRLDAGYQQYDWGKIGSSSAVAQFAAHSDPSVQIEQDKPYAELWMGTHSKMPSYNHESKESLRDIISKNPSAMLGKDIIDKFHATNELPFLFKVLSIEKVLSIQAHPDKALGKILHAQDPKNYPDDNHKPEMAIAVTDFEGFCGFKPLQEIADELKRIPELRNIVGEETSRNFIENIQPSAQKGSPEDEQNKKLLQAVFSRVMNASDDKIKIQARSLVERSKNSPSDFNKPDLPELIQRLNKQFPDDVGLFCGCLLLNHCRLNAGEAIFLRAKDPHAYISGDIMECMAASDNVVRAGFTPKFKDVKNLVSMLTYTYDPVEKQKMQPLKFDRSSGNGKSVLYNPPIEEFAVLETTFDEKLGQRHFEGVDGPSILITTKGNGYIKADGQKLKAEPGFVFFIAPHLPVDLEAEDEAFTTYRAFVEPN

[3] = test system: Saccharomyces cerevisiae; test: Compound was evaluated for the minimum inhibitory concentration against Invsc 1, a wild type strain of Saccharomyces cerevisiae; format: functional
[4] = test system: Saccharomyces cerevisiae; test: Compound was evaluated for the minimum inhibitory concentration against Saccharomyces cerevisiae; format: functional
[5] = molecular target: T2, Mannose-6-phosphate isomerase (Homo sapiens, UniProt P34949); test: Compound was evaluated for the inhibition constant against human phosphomannose isomerase (huPMI)
T2 sequence (P34949 whole entry): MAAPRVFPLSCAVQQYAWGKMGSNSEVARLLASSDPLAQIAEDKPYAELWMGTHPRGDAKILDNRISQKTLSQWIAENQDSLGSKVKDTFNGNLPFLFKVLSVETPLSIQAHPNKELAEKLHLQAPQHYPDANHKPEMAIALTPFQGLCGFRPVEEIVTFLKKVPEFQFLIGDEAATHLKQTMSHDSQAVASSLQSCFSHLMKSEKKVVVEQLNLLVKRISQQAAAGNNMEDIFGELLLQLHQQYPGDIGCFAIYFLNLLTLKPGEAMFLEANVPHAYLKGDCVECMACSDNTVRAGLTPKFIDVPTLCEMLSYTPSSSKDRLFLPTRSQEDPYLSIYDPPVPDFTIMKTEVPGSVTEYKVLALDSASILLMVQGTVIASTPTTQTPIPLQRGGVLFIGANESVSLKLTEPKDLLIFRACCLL

[6] = test system: Candida albicans; test: Compound was evaluated for the minimum inhibitory concentration against Candida albicans; format: functional
[7] = Compound was tested for inhibition of porcine phosphomannose isomerase (PMI); parameters: species or system Sus scrofa
[8] = molecular target: T2, Mannose-6-phosphate isomerase; test: Compound was tested for inhibition of human phosphomannose isomerase (PMI)

Structure (SMILES) | IC50 [1] [µM] | other results
NC(=O)C1(NC(=O)CCCOc2ccc(Cl)cc2Cl)CCc2ccccc2C1 (centres undefined) | 93 | –
NC(=O)C1(NC(=O)CCCNc2ccc(Cl)cc2Cl)Cc2ccccc2C1 | 50 | –
O=C(CCCOc1ccc(Cl)cc1Cl)NC1(CO)Cc2ccccc2C1 | 140 | –
NC(=O)C1Cc2ccccc2CN1C(=O)CCCOc1ccc(Cl)cc1Cl (centres undefined) | > 200 | –
O=C(CCCOc1ccc(Cl)cc1Cl)NC1(C(=O)NO)CCc2ccccc21 (centres undefined) | – | IC50 [2]: Not Active
Cc1cc(OCCCC(=O)NC2(C(N)=O)Cc3ccccc3C2)ccc1Cl | 50 | –
O=C(CCCSc1ccc(Cl)c(Cl)c1)NC1(C(=O)NO)Cc2ccccc2C1 | – | MIC [3]: 100 µM (≈ 43.9 µg/mL); MIC [4]: 80 µM (≈ 35.1 µg/mL); Ki [5]: 26 µM; MIC [6]: 100 µM (≈ 43.9 µg/mL)
O=C(CCCOc1ccc(Cl)cc1Cl)NC1(C(=O)O)Cc2ccccc2C1 | > 500 | –
COC(=O)C1(NC(=O)CCCOc2ccc(Cl)cc2Cl)Cc2ccccc2C1 | 34 | –
COC(=O)C1(NC(=O)CCCOc2ccc(Cl)c(Cl)c2)Cc2cc3ccccc3cc2C1 | > 200 | –
NC(=O)C1(NC(=O)CCCSc2ccc(Cl)cc2Cl)Cc2ccccc2C1 | 14 | –
COC(=O)C1(NC(=O)CCCOc2ccc(Cl)c(Cl)c2)Cc2ccc3ccccc3c2C1 (centres undefined) | > 200 | –
NC(=O)C1(NC(=O)CCCNc2ccc(Cl)c(Cl)c2)Cc2ccccc2C1 | 21 | –
NC(=O)C1(NC(=O)CCCOc2cc(Cl)c(Cl)cc2Cl)Cc2ccccc2C1 | 30 | –
NC(=O)C1(NC(=O)CCCSc2ccc(Cl)c(Cl)c2)Cc2ccccc2C1 | 6 | –
NC(=O)C1(NC(=O)CCCOc2ccc(Cl)cc2Cl)CCCC1 | > 200 | –
NC(=O)C1(NC(=O)CCCOc2ccc(Cl)c(Cl)c2)Cc2ccccc2C1 | 15 | –
O=CC(O)C(O)COP(=O)(O)O (centres undefined) | – | IC50 [7]: 100 µM; IC50 [8]: 100 µM
O=C(CCCOc1ccc(Cl)cc1Cl)NC1(C(=O)NO)Cc2ccccc2C1 | 39 | –
NNC(=O)C1(NC(=O)CCCOc2ccc(Cl)cc2Cl)Cc2ccccc2C1 | 40 | –
COC(=O)c1ccc2c(c1)CC(NC(=O)CCCOc1ccc(Cl)c(Cl)c1)(C(=O)OC)C2 (centres undefined) | > 200 | –
CNC(=O)C1(NC(=O)CCCOc2ccc(Cl)cc2Cl)Cc2ccccc2C1 | 34 | –
O=C(CCCOc1ccc(Cl)cc1Cl)NC1Cc2ccccc2C1 | > 200 | –
CC(Cc1ccccc1)(NC(=O)CCCOc1ccc(Cl)cc1Cl)C(N)=O (centres undefined) | > 200 | –
NC(=O)C1(NC(=O)CCCOc2ccc(Cl)cc2Cl)CCc2ccccc21 (centres undefined) | > 200 | –
